# According to US20060166237A1, “Method of detecting reaction of DNA and DNA-binding protein” (OLYMPUS CORPORATION, priority 2003, published 2006):
# How the values were obtained:
# Type in all cases: cell-based
# [1] = tested on: transcription factor NF-κB in HeLa cell; test: Activation of NF-κB in HeLa cell nucleus by TNF-α and APDC stimulation, FCS readout (Experiment 7-2)
# Method: (§1) Two hours after addition of APDC, a tumor necrosis factor TNF-α is added to stimulate HeLa cell for 30 minutes, from which a nucleus extract is prepared. A nucleus extract having a concentration of 5, 10 or 20 μg is prepared. Stimulation on a cell is performed in the following two cases.
# (§2) (I) The case where stimulation with only a tumor necrosis factor TNF-α is performed for 30 minutes. A concentration of a tumor necrosis factor TNF-α is 0, 10, 25 or 50 ng/ml.
# (§3) (II) The case where stimulation with a tumor necrosis factor TNF-α is performed for 30 minutes, two hours after addition of APDC. A concentration of APDC is 10, 100 or 200 μM relative to a 50 ng/ml of a tumor necrosis factor TNF-α.
# [Experiment 7-2] Experiment of a reaction of a (fluorescently labeled) DNA having an […] sequence and a cell nucleus extract. The Experiment was performed using a cell nucleus extract which is extracted under the condition of a different concentration of an added tumor necrosis factor TNF-α and a different concentration of added APDC.
# The following shown in Table 29 are used to perform a binding reaction experiment in the same way as Experiment 3-2.
# [2] = tested on: transcription factor AP-1 in HeLa cell; test: Activation of AP-1 in HeLa cell nucleus by TNF-α and APDC stimulation, FCS readout (Experiment 7-1)
# Method: as §1, §2, §3
# (§4) [Experiment 7-1] Experiment of a reaction of a (fluorescently labeled) DNA having an AP-1-binding sequence and a cell nucleus extract. The Experiment was performed using a cell nucleus extract which is extracted under the condition of a different concentration of an added tumor necrosis factor TNF-α and a different concentration of an added APDC.
# The following shown in Table 28 are used to perform a binding reaction experiment in the same way as Experiment 3-1.
# [3] = tested on: transcription factor AP-1 in HeLa cell; test: Activation of AP-1 in HeLa cell nucleus by TNF-α stimulation time, FCS readout (Experiment 6-1); conditions: 50 ng/ml TNF-α, nucleus extract 20 μg, DNA 20, FIG. 18
# Method: as §4, with “6-1]” for “7-1]”, “time length” for “concentration”, “stimulation with a” for “an added”, “TNF-α.” for “TNF-α and a different concentration of an added APDC.”
# 50 ng/ml of a tumor necrosis factor TNF-α was added to HeLa cell, and the HeLa cell was stimulated for 0, 15, 30, 60, 120 or 180 minutes. Then, a nucleus extract was prepared from each HeLa cell (for preparation method, see Example 3). A concentration of a nucleus extract was set to be 20 μg.
# The following shown in Table 26 are used to perform a binding reaction experiment in the same way as Experiment 3-1.
# [4] = tested on: transcription factor NF-κB in HeLa cell; test: Activation of NF-κB in HeLa cell nucleus by TNF-α stimulation time, FCS readout (Experiment 6-2); conditions: 50 ng/ml TNF-α, nucleus extract 20 μg, DNA 30, FIG. 19
# Method: [Experiment 6-2] Experiment of a reaction of a (fluorescently labeled) DNA having an NF-κB-binding sequence and a cell nucleus extract. The Experiment was performed using a cell nucleus extract which is extracted under the condition of a different time length of stimulation with a tumor necrosis factor TNF-α.
# In the same way as Experiment 6-1, 50 ng/ml of a tumor necrosis factor TNF-α was added to HeLa cell, and the HeLa cell was stimulated for 0, 15, 30, 60, 120 or 180 minutes. Then, a nucleus extract was prepared from each HeLa cell.
# The following shown in Table 27 are used to perform a binding reaction experiment in the same way as Experiment 3-2.
# [5] = HeLa cell, APDC 10, 100 or 200 μM with 50 ng/ml TNF-α
Compound,"effect of APDC on activation of transcription factor NF-κB by TNF-α [1, 5]","activation of transcription factor AP-1 in cell nucleus extract ([2]; APDC 100 μM and 200 μM, added 2 hours before 50 ng/ml TNF-α for 30 minutes, FIG. 20)","effect of APDC on activation of transcription factor AP-1 by TNF-α [2, 5]","activation of transcription factor NF-κB in cell nucleus extract ([1]; stimulation with only TNF-α 50 ng/ml for 30 minutes, FIG. 21)",stimulation time giving greatest translational diffusion time (AP-1 sufficiently activated) [3],stimulation time giving greatest translational diffusion time (NF-κB sufficiently activated) [4]
"N.S=C(S)N1CCCC1 [APDC, Ammonium pyrrolidinedithiocarbamate]",suppresses activation of a transcription factor NF-κB by a tumor necrosis factor TNF-α,most activated,promotes activation of a transcription factor AP-1 by a tumor necrosis factor TNF-α,–,–,–
tumor necrosis factor TNF-α,–,–,–,most activated,30 min,15 min
